According to patent publication US20250154198A1, “PEPTIDE INHIBITORS OF INTERLEUKIN-23 RECEPTOR” (Zealand Pharma A/S, priority 2021, published 2025):
*1 amine or outer side, *2 acyl side, *3 side chain or, on linkers, in order; H or OH if unused. Where a SMILES comes first, the peptide text is derived from it. Bridges are numbered along the chain shown (N, C = ends). [ ]: non-standard residue; d: D form. Pipz(1-CH2CO,4-CH2CH2NH) = O=C(CN1CCN(CCN[*:1])CC1)[*:2]; 2Nal = N[C@@H](Cc1ccc2ccccc2c1)C(=O)O; AEF = NCCOc1ccc(C[C@H](N)C(=O)O)cc1; αMeL = CC(C)C[C@](C)(N)C(=O)O; CH2COCH2 = O=C(C[*:1])C[*:2]; Ahx = NCCCCCC(=O)O

How the values were obtained:
[1] = Peptide stability in simulated intestinal fluid (SIF); type: in vitro ADME; details: pig, simulated intestinal fluid (SIF) with porcine pancreatin, Table 3-2, porcine pancreatin, pH 6.8, 37° C., 10 μM; for remaining at 4 h, 10 μM: read-out: SIF (% remaining 4 h); for remaining at 1 h, 10 μM: read-out: SIF (% remaining 1 h)
Experimental: Determination of Peptide Stability in Simulated Gastric Fluid (SGF) and Simulated Intestinal Fluid (SIF)
SGF was prepared by dissolving sodium chloride (0.2 g) in 50 mL of water. A volume of 0.7 mL of 10 M HCl was added to adjust the pH of the solution to 1.2 and the volume made up to 100 mL with water. […] SIF was prepared by dissolving monobasic potassium phosphate (0.68 g) in 50 mL of water and adjusting the pH to 6.8 with 1 M NaOH. The volume was subsequently made up to 100 mL with water. 200 mg porcine pancreatin (P1625, Sigma Aldrich) was gently dissolved into 20 mL preheated (37° C.) solution (10 g/L) immediately prior to the incubation.
The incubation was performed at 37° C. with gentle shaking. […] After the last timepoint, the sampling plate was mixed for 10 min on a shaking table and centrifuged 10 min at 2200 g. 70 μL resulting supernatant was diluted with 150 μL water, mixed and centrifugated before analysis by liquid chromatography high resolution mass spectrometry. […] Percent remaining at each timepoint was calculated relative to timepoint zero based on absolute peak areas.

[2] = biological target: T1, human IL-23R (Homo sapiens, UniProt Q5VWK5); experiment: Binding assay (NanoBRET displacement of fluorophore-labelled reference compound) for estimating binding affinity to human IL-23R; details: Table 3-1; read-out: Ki hIL-23R
T1 construct: UniProtKB—Q5VWK5, amino acids 22-629; secretion signal of the plasmid (Promega N1371); expressed in transfected cells
T1 sequence (Q5VWK5 22-629): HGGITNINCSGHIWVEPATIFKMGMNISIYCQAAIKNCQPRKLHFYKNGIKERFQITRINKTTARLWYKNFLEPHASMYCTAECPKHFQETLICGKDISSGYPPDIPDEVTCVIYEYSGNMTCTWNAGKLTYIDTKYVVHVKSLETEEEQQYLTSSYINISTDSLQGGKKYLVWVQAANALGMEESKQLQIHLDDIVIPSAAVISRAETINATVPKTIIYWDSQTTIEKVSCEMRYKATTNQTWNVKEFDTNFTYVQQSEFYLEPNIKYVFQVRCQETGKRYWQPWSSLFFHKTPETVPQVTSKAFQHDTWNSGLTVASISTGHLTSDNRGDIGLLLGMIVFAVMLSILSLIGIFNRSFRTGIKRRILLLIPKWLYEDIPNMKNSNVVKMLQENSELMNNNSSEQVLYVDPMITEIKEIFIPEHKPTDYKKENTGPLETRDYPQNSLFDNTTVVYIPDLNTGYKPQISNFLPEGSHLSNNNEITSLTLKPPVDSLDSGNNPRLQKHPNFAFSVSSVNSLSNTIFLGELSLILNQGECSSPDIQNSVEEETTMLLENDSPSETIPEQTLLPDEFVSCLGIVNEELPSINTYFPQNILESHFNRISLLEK

[3] = biological target: IL-23 mediated phospho-STAT3 formation in DB cells (Homo sapiens, UniProt Q5VWK5); experiment: Functional inhibition of IL-23 mediated STAT3 signalling (phospho-STAT3 Tyr705 MSD) in DB cells; type: cell-based; details: Table 3-1; DB cells; read-out: IC50 (pSTAT3)
Description: Functional Inhibition of IL-23 Mediated STAT3 Signalling by Compounds
Upon binding of IL-23, the IL-23R forms a heterodimer signalling complex together with IL-12R β1, which through the JAK2/STAT3 pathway promotes phosphorylation of STAT3 to form phospho-STAT3.
The assay was used to quantify the functional antagonism of a compound and to rank order the inhibitor compounds according to their potency. For compounds tested in this assay, the response was normalized relative to control values to calculate the IC50 and maximal inhibitory response from a concentration response curve of the compound in presence of a fixed concentration of human IL-23.
The assay procedure was as follows. […] Following preincubation of the DB cells with inhibitor for 15 min in a cell incubator (37° C., 5% CO2), 20 μL of the prepared 3× the EC80 of hIL-23 solution was added to each well and incubated for 90 min in a cell incubator (37° C., 5% CO2). For some wells buffer only or IL-23 only corresponding to the EC80 was added to obtain readouts needed for normalization. To terminate the assay, the plate was spun at 1000 G for 5 min to pellet cells, the supernatant removed using an 8-channel manual pipette, and then added 50 μL/well Complete Lysis Buffer from the MSD STAT3 kit (Cat #K150SVD, Mesoscale) to the cell pellet. To completely lyse cells to release phospho-STAT3 for detection, the plate was shaken for 10 min at room temperature (500 rpm) sealed with aluminum foil and placed at −80° C. for a minimum of 15 min. Detection of the phospho-STAT3 level in the cell lysate from the individual wells was determined using the MSD STAT3 kit (Cat #K150SVD, Mesoscale) and read on a Meso QuickPlex SQ 120 plate reader (Mesoscale).
For data analysis raw data counts from the Meso QuickPlex SQ 120 plate reader were normalized relative to the response by the EC80 of hIL-23 alone (no compound added) and the buffer level. Compound potency (IC50) and maximal inhibitory response (% inhibition) were estimated by computer-aided curve fitting using a 4-parameter logistic (4PL) non-linear model.

## CC(=O)N[C@H]1CCCCNC(=O)CC[C@@H](C(=O)N[C@H](CCCNC(=N)N)C(N)=O)NC(=O)[C@](C)(CC(C)C)NC(=O)[C@H](Cc2ccc3ccccc3c2)NC(=O)[C@H](Cc2ccc(OCCN)cc2)NC(=O)[C@@H]2CSCC(=O)CSC[C@H](NC(=O)[C@H]([C@@H](C)O)NC1=O)C(=O)N[C@@H](Cc1c[nH]c3ccccc13)C(=O)N[C@@H](CCC(N)=O)C(=O)N2 [Compound 85, [Ac]-K(1c)TC(2a)WQC(2a)[Y(2-aminoethoxy)][2-Nal][2-Me-Leu]E(1c)[{d}R]-[NH2]] (Ac-KTCWQC[AEF][2Nal][αMeL]E[dR]-NH2; lactam 1-10; linker 3-6 via CH2COCH2)
[1]
  remaining at 4 h, 10 μM: 74%
[2]
  Ki: 0.321 nM

## CC(=O)N[C@H]1CCC(=O)NCCCC[C@@H](C(N)=O)NC(=O)[C@H](CC(C)C)NC(=O)[C@H](Cc2c[nH]c3ccccc23)NC(=O)[C@H](Cc2c[nH]c3ccccc23)NC(=O)[C@@H]2CSCC(=O)CSC[C@H](NC(=O)[C@H](CO)NC1=O)C(=O)N[C@@H](Cc1c[nH]c3ccccc13)C(=O)N[C@@H](CCC(N)=O)C(=O)N2 [Compound 12, [Ac]-E(1c)SC(2a)WQC(2a)WWLK(1c)-[NH2]] (HELM PEPTIDE1{[ac].E.S.C.W.Q.C.W.W.L.K.[am]}|CHEM1{[O=C(C[*:1])C[*:2]]}$PEPTIDE1,PEPTIDE1,2:R3-11:R3|PEPTIDE1,CHEM1,4:R3-1:R1|PEPTIDE1,CHEM1,7:R3-1:R2$$$V2.0)
[3]
  IC50: > 1000 nM

## CC(C)C[C@]1(C)NC(=O)[C@H](Cc2ccc3ccccc3c2)NC(=O)[C@H](Cc2ccc(OCCN)cc2)NC(=O)[C@@H]2CCC(=O)NCC[C@H](NC(=O)[C@H](CO)NC(=O)Cc3ccc(cc3)CNC(=O)CC[C@@H](C(=O)N[C@@H](CCN)C(=O)N[C@@H](Cc3cccnc3)C(N)=O)NC1=O)C(=O)N[C@@H](Cc1c[nH]c3ccccc13)C(=O)N[C@@H](CCC(N)=O)C(=O)N2 (relative stereo) [Compound 123, [4-Aminomethyl-phenylacetyl](1c)*S[Dab](2c)WQE(2c)[Y(2-aminoethoxy)][2-Nal][2-Me-Leu]E(1c)[Dab][3-(3-Pyridyl)-Ala]-[NH2]]
[1]
  remaining at 1 h, 10 μM: 46%
  remaining at 4 h, 10 μM: 4%
[2]
  Ki: 0.00783 nM

## CC(C)C[C@]1(C)NC(=O)[C@H](Cc2ccc3ccccc3c2)NC(=O)[C@H](Cc2ccc(OCCN)cc2)NC(=O)[C@@H]2CSCC(=O)CSC[C@H](NC(=O)[C@H](CO)NC(=O)CN3CCN(CCNC(=O)CC[C@@H](C(=O)N[C@H](CCCNC(=N)N)C(N)=O)NC1=O)CC3)C(=O)N[C@@H](Cc1c[nH]c3ccccc13)C(=O)N[C@@H](CCC(N)=O)C(=O)N2 [Compound 90, [(4-(2-Aminoethyl)-piperazine-1-yl)-acetyl](1c)*SC(2a)WQC(2a)[Y(2-aminoethoxy)][2-Nal][2-Me-Leu]E(1c)[{d}R]-[NH2]] ([Pipz(1-CH2CO,4-CH2CH2NH)]SCWQC[AEF][2Nal][αMeL]E[dR]-NH2; linker 3-6 via CH2COCH2; lactam N-10)
[1]
  remaining at 4 h, 10 μM: 67%
[2]
  Ki: 0.706 nM

## CC(=O)N[C@@H](CC(=O)O)C(=O)N[C@H]1CCC(=O)NCCCC[C@@H](C(=O)N[C@@H](CCCNC(=N)N)C(N)=O)NC(=O)[C@](C)(CC(C)C)NC(=O)[C@H](Cc2c[nH]c3ccccc23)NC(=O)[C@H](Cc2ccc(O)cc2)NC(=O)[C@@H]2CSCC(=O)CSC[C@H](NC(=O)[C@H](CCC(N)=O)NC1=O)C(=O)N[C@@H](Cc1c[nH]c3ccccc13)C(=O)N[C@@H](CCC(N)=O)C(=O)N2 [Compound 55, [Ac]-DE(1c)QC(2a)WQC(2a)YW[2-Me-Leu]K(1c)R-[NH2]] (HELM PEPTIDE1{[ac].D.E.Q.C.W.Q.C.Y.W.[CC(C)C[C@](C)(N[*:1])C(=O)[*:2]].K.R.[am]}|CHEM1{[O=C(C[*:1])C[*:2]]}$PEPTIDE1,PEPTIDE1,3:R3-12:R3|PEPTIDE1,CHEM1,5:R3-1:R1|PEPTIDE1,CHEM1,8:R3-1:R2$$$V2.0)
[3]
  IC50: > 1000 nM

## CC(=O)N[C@@H](CC(=O)O)C(=O)N[C@H]1CCC(=O)NCCCC[C@@H](C(N)=O)NC(=O)[C@H](CC(C)C)NC(=O)[C@H](Cc2c[nH]c3ccccc23)NC(=O)[C@H](Cc2c[nH]c3ccccc23)NC(=O)[C@@H]2CSCC(=O)CSC[C@H](NC(=O)[C@H](CO)NC1=O)C(=O)N[C@@H](Cc1c[nH]c3ccccc13)C(=O)N[C@@H](CCC(N)=O)C(=O)N2 [Compound 11, [Ac]-DE(1c)SC(2a)WQC(2a)WWLK(1c)-[NH2]] (HELM PEPTIDE1{[ac].D.E.S.C.W.Q.C.W.W.L.K.[am]}|CHEM1{[O=C(C[*:1])C[*:2]]}$PEPTIDE1,PEPTIDE1,3:R3-12:R3|PEPTIDE1,CHEM1,5:R3-1:R1|PEPTIDE1,CHEM1,8:R3-1:R2$$$V2.0)
[3]
  IC50: > 1000 nM

## CC(=O)N[C@H]1CCCCNC(=O)CC[C@@H](C(=O)N[C@@H](CCCNC(=N)N)C(N)=O)NC(=O)[C@H](CC(C)C)NC(=O)[C@H](Cc2ccc3ccccc3c2)NC(=O)[C@H](Cc2c[nH]c3ccccc23)NC(=O)[C@@H]2CSCC(=O)CSC[C@H](NC(=O)[C@H](CO)NC1=O)C(=O)N[C@@H](Cc1ccc3ccccc3c1)C(=O)N[C@@H](CCC(N)=O)C(=O)N2 [Compound 25, [Ac]-K(1c)SC(2a)[2-Nal]QC(2a)W[2-Nal]LE(1c)R-[NH2]] (Ac-KSC[2Nal]QCW[2Nal]LER-NH2; lactam 1-10; linker 3-6 via CH2COCH2)
[3]
  IC50: > 1000 nM

## CC(=O)N[C@H]1CCCCNC(=O)CC[C@@H](C(=O)N[C@@H](CCCNC(=N)N)C(N)=O)NC(=O)[C@@H](CC(C)C)NC(=O)[C@H](Cc2ccc3ccccc3c2)NC(=O)[C@H](Cc2ccc(OCCN)cc2)NC(=O)[C@@H]2CSCC(=O)CSC[C@H](NC(=O)[C@H](CO)NC1=O)C(=O)N[C@@H](Cc1c[nH]c3ccccc13)C(=O)N[C@@H](CCC(N)=O)C(=O)N2 [Compound 48, [Ac]-K(1c)SC(2a)WQC(2a)[Y(2-aminoethoxy)][2-Nal][{d}L]E(1c)R-[NH2]] (Ac-KSCWQC[AEF][2Nal][dL]ER-NH2; lactam 1-10; linker 3-6 via CH2COCH2)
[1]
  remaining at 1 h, 10 μM: 0%
  remaining at 4 h, 10 μM: 0%
[2]
  Ki: 17 nM

## CC(C)C[C@]1(C)NC(=O)[C@H](Cc2ccc3ccccc3c2)NC(=O)[C@H](Cc2ccc(OCCN)cc2)NC(=O)[C@@H]2CSCC(=O)CSC[C@H](NC(=O)[C@H](CO)NC(=O)CCCCCNC(=O)CC[C@@H](C(=O)N[C@H](CCCNC(=N)N)C(N)=O)NC1=O)C(=O)N[C@@H](Cc1c[nH]c3ccccc13)C(=O)N[C@@H](CCC(N)=O)C(=O)N2 [Compound 87, [6-Aminohexanoyl](1c)*SC(2a)WQC(2a)[Y(2-aminoethoxy)][2-Nal][2-Me-Leu]E(1c)[{d}R]-[NH2]] ([Ahx]SCWQC[AEF][2Nal][αMeL]E[dR]-NH2; linker 3-6 via CH2COCH2; lactam N-10)
[1]
  remaining at 1 h, 10 μM: 95%
[2]
  Ki: 0.439 nM
